inhibition, IC50 and Ratio IC50 data for 21 compounds are collected here from ChEMBL document CHEMBL3217511, “Structure-activity evaluation of new uracil-based non-nucleoside inhibitors of HIV reverse transcriptase” (Medchemcomm, 2013).

A word on the inhibition: it is the change of the read-out against control, counted positive when it falls. A higher inhibition goes with a strong effect. The term IC50 denotes the concentration needed to halve the response being measured. Read a low IC50 as greater potency.

Experiment [1] has as its system Human immunodeficiency virus type 1 reverse transcriptase (Human immunodeficiency virus 1), Q72547 [K103N,Y181C]. Briefly: Inhibition of HIV1 Reverse transcriptase p51/p66 K103N/Y181C mutant at 10 uM after 30 mins using alpha-[32P]dATP by liquid scintillation counting.
Experiment [2] has as its system Human immunodeficiency virus 1. Briefly: Inhibition of HIV1 Reverse transcriptase p51/p66 G190A mutant at 10 uM after 30 mins using alpha-[32P]dATP by liquid scintillation counting.
For experiment [3], the system named is Human immunodeficiency virus type 1 reverse transcriptase (Human immunodeficiency virus 1), Q72547 [Y181C]. Put plainly: Inhibition of HIV1 Reverse transcriptase p51/p66 Y181C mutant at 10 uM after 30 mins using alpha-[32P]dATP by liquid scintillation counting.
The subject of experiment [4] is Human immunodeficiency virus type 1 reverse transcriptase (Human immunodeficiency virus 1), Q72547 [V106A]. Put plainly: Inhibition of HIV1 Reverse transcriptase p51/p66 V106A mutant at 10 uM after 30 mins using alpha-[32P]dATP by liquid scintillation counting.
Experiment [5] has as its system Human immunodeficiency virus type 1 reverse transcriptase (Human immunodeficiency virus 1), Q72547 [K103N]. Briefly: Inhibition of HIV1 Reverse transcriptase p51/p66 K103N mutant at 10 uM after 30 mins using alpha-[32P]dATP by liquid scintillation counting.
Experiment [6] has as its system Human immunodeficiency virus type 1 reverse transcriptase (Human immunodeficiency virus 1), Q72547 [L100I]. Put plainly: Inhibition of HIV1 Reverse transcriptase p51/p66 L100I mutant at 10 uM after 30 mins using alpha-[32P]dATP by liquid scintillation counting.
Experiment [7] addresses Human immunodeficiency virus type 1 reverse transcriptase (Human immunodeficiency virus 1) (UniProt Q72547). Briefly: Inhibition of wild-type HIV1 Reverse transcriptase p51/p66 at 10 uM after 30 mins using alpha-[32P]dATP by liquid scintillation counting.
Experiment [8] can be described thus: Inhibition of HIV1 Reverse transcriptase p51/p66 G190A mutant after 30 mins using alpha-[32P]dATP by liquid scintillation counting. Also noted: species or system Human immunodeficiency virus 1.
The target of experiment [9] is Human immunodeficiency virus type 1 reverse transcriptase (Human immunodeficiency virus 1, UniProt Q72547). Briefly: Inhibition of wild-type HIV1 Reverse transcriptase p51/p66 after 30 mins using alpha-[32P]dATP by liquid scintillation counting.
Experiment [10] relates to Human immunodeficiency virus 1. Briefly: Selectivity ratio of IC50 for HIV1 Reverse transcriptase p51/p66 K103N mutant to IC50 for wild-type HIV1 Reverse transcriptase p51/p66.
Experiment [11] deals with Human immunodeficiency virus 1. Put plainly: Selectivity ratio of IC50 for HIV1 Reverse transcriptase p51/p66 L100I mutant to IC50 for wild-type HIV1 Reverse transcriptase p51/p66.
For experiment [12], the target named is Human immunodeficiency virus type 1 reverse transcriptase (Human immunodeficiency virus 1, UniProt Q72547, K103N/Y181C). Put plainly: Inhibition of HIV1 Reverse transcriptase p51/p66 K103N/Y181C mutant after 30 mins using alpha-[32P]dATP by liquid scintillation counting.
The target in experiment [13] is Human immunodeficiency virus type 1 reverse transcriptase (Human immunodeficiency virus 1, UniProt Q72547, Y181C). Briefly: Inhibition of HIV1 Reverse transcriptase p51/p66 Y181C mutant after 30 mins using alpha-[32P]dATP by liquid scintillation counting.
The target in experiment [14] is Human immunodeficiency virus type 1 reverse transcriptase (Human immunodeficiency virus 1, UniProt Q72547, V106A). Briefly: Inhibition of HIV1 Reverse transcriptase p51/p66 V106A mutant after 30 mins using alpha-[32P]dATP by liquid scintillation counting.
Experiment [15] concerns the target Human immunodeficiency virus type 1 reverse transcriptase (Human immunodeficiency virus 1, UniProt Q72547, K103N). Briefly: Inhibition of HIV1 Reverse transcriptase p51/p66 K103N mutant after 30 mins using alpha-[32P]dATP by liquid scintillation counting.
Experiment [16] has as its target Human immunodeficiency virus type 1 reverse transcriptase (Human immunodeficiency virus 1, UniProt Q72547, L100I). Briefly: Inhibition of HIV1 Reverse transcriptase p51/p66 L100I mutant after 30 mins using alpha-[32P]dATP by liquid scintillation counting.

For the compound `O=C(OC1C=CC(n2ccc(=O)n(Cc3ccccc3)c2=O)C1)c1ccccc1` (centres undefined), the inhibition is 15% in [1]; < 10% in experiment [2]; 11% in experiment [3]; 12% in experiment [4]; 26% in experiment [5]; 83% in experiment [6]. The same compound yielded an inhibition in [7] of 45%. Also, the IC50 in experiment [8] was > 50 µM.
In experiment [9], `O=C(Cc1ccccc1)OC1C=CC(n2ccc(=O)n(Cc3ccccc3)c2=O)C1` (centres undefined) registered an IC50 of 52 µM.
On the same count and under the same terms, then `O=C(OC1C=CC(n2ccc(=O)[nH]c2=O)C1)c1cc(Cl)cc(Cl)c1` (centres undefined), with > 100 µM.
In the case of `N#Cc1cccc(C(=O)OC2C=CC(n3ccc(=O)n(Cc4ccccc4)c3=O)C2)c1` (centres undefined), the IC50 in [9] was > 100 µM.
Same read-out and setting: to `O=C(Oc1ccccc1Cn1ccc(=O)n(Cc2ccccc2)c1=O)c1ccccc1` belongs > 100 µM.
In the case of `O=C(Oc1ccc(Cn2ccc(=O)[nH]c2=O)cc1)c1ccccc1`, the concentration for half-maximal inhibition (IC50) in experiment [9] was > 100 µM.
Take `Cc1ccnc2c1NC(=O)c1cccnc1N2C1CC1` [NEVIRAPINE]: the inhibition was < 10% in [1]; < 10% in [2]; < 10% in experiment [3]; < 10% in experiment [4]; < 10% in [5]; 48% in experiment [6]. In addition, in experiment [8], the IC50 was > 2000 µM.
For `O=C(OC1C=CC(n2ccc(=O)n(Cc3ccccc3)c2=O)C1)c1cc(Cl)cc(Cl)c1` (centres undefined), the inhibition was 25% in [1]; < 10% in [2]; 17% in [3]; 20% in experiment [4]; 53% in experiment [5]; 89% in [6]. This compound also showed an inhibition in [7] of 59%. Also, the Ratio IC50 came out at 1.69 in [10] and 0.25 in experiment [11]. Also, the IC50 in experiment [12] is > 10 µM; in experiment [8] it was > 100 µM; in [13], > 10 µM; in [14], > 10 µM; in [15] it was 8.8 µM; in experiment [16], 1.29 µM. The compound further gave a half-inhibitory concentration (IC50) in experiment [9] of 5.1 µM.
`O=C(Oc1ccc(Cn2ccc(=O)n(Cc3ccccc3)c2=O)cc1)c1ccccc1`: the IC50 in experiment [9] is > 100 µM.
With `O=C(CCc1ccccc1)OC1C=CC(n2ccc(=O)n(Cc3cc(F)cc(F)c3)c2=O)C1` (centres undefined), in experiment [9], the IC50 was > 100 µM.
The same measure, in the same setting: then `Cc1cc(C)cc(C(=O)OC2C=CC(n3ccc(=O)n(C(=O)c4cc(C)cc(C)c4)c3=O)C2)c1` (centres undefined), with > 100 µM; and `O=C(Oc1cccc(Cn2ccc(=O)n(Cc3ccccc3)c2=O)c1)c1ccccc1`, with 32.3 µM; and `O=C(Oc1cccc(Cn2ccc(=O)[nH]c2=O)c1)c1cc(Cl)cc(Cl)c1`, with 42 µM.
In the case of `O=C(OC1C=CC(n2ccc(=O)n(C(=O)c3cc(Cl)cc(Cl)c3)c2=O)C1)c1cc(Cl)cc(Cl)c1` (centres undefined), the concentration for half-maximal inhibition (IC50) in [9] is > 100 µM.
Turning to `Cc1cc(C)cc(C(=O)OC2C=CC(n3ccc(=O)n(Cc4ccccc4)c3=O)C2)c1` (centres undefined), the inhibition is 23% in experiment [1]; < 10% in experiment [2]; 24% in experiment [3]; 14% in experiment [4]; 37% in experiment [5]; 77% in experiment [6]. Moreover, the inhibition in experiment [7] amounted to 52%. Besides, the Ratio IC50 in experiment [10] came to 2.11; in [11], 0.26. Also, the 50% inhibitory concentration (IC50) in experiment [12] was > 20 µM; in [8] it was > 100 µM; in [13] it was > 20 µM; in experiment [14], > 20 µM; in [15], 17.3 µM; in [16] it was 2.1 µM. Moreover, the IC50 in [9] amounted to 8.2 µM.
For `O=C(CCc1ccccc1)OC1C=CC(n2ccc(=O)n(Cc3ccccc3)c2=O)C1` (centres undefined), the half-maximal inhibitory concentration (IC50) in experiment [9] is > 100 µM.
As for `O=C(Cc1ccccc1)OC1C=CC(n2ccc(=O)n(Cc3cc(F)cc(F)c3)c2=O)C1` (centres undefined), the concentration for half-maximal inhibition (IC50) in [9] is > 100 µM.
Still for that read-out and setting: then `O=C(Oc1cccc(Cn2ccc(=O)[nH]c2=O)c1)c1ccccc1`, with > 100 µM; and `N#Cc1cccc(C(=O)OC2C=CC(n3ccc(=O)[nH]c3=O)C2)c1` (centres undefined), with > 100 µM; and `Cc1cc(C)cc(C(=O)OC2C=CC(n3ccc(=O)[nH]c3=O)C2)c1` (centres undefined), with > 100 µM.
Turning to `O=C(Oc1ccccc1Cn1ccc(=O)[nH]c1=O)c1ccccc1`, the IC50 in experiment [9] was > 100 µM.
